Experimental data as given in publication PMC7143758, “Highly Substituted Phenol Derivatives with Nitric Oxide Inhibitory Activities from the Deep-Sea-Derived Fungus Trichobotrys effuse FS524” (Marine Drugs, 2020).

What was measured:
[1] = system: NO production in LPS-induced RAW 264.7 macrophages; assay: Inhibition of nitric oxide (NO) production in LPS-induced macrophages (Griess); format: cell-based, mouse; details: for IC50: LPS (1 μg/mL) 24 h, RAW 264.7 mouse macrophages, Griess, mean ± SD, triplicate; for inhibitory activities against NO production (in words): LPS-induced RAW 264.7 macrophages
Experimental: (§1) Compounds 1–6 were evaluated for the inhibitory activity of nitric oxide (NO) production in lipopolysaccharide (LPS)-induced RAW 246.7 mouse macrophages. The cells (180 μL) with a density of 5 × 10^5 cells/mL of media on a 96-well plate were put under 37 °C at a 5% CO2 condition. After a 24 h preincubation, the seeded cells were treated with gradient dilutions of 1-6 with a maximum concentration of 100 μM, followed by stimulation with LPS (1 μg/mL) for 24 h. Then 50 μL cell culture supernatant solution was moved to a new plate that contained NO detection Griess A (50 μL) and Griess B (50 μL). Finally, the absorbance was measured at 540 nm. Aminoguanidine was used as a positive control and all data were obtained in triplicate. The viability of RAW264.7 cells was evaluated according to the SRB method simultaneously to exclude the interference of the cytotoxicity of 1–6. The RAW264.7 cells were purchased from the Cell Bank of the Chinese Academy of Sciences.

[2] = Cytotoxicity / viability of macrophages (SRB method); format: cell-based, mouse; details: mouse, RAW264.7 macrophage cells, RAW264.7 macrophages
Experimental: as §1

RAW264.7 cells = assay: as above; format: cell-based, mouse; details: RAW264.7 macrophages
Experimental: as §1

IC50 ([1]; Mus musculus, RAW264.7, 24 h) [µM]	IC50 [1] [µM]	melting point [°C]	SMILES	IC50 at 24 h [2] [µM]	IC50 (RAW264.7 cells) [µM]	inhibitory activities against NO production (in words) [1]
54.3 ± 2.2	–	–	CCc1c(O)cc2c(c1O)C(=O)C[C@@H](C)O2 [Compound 4a, (+)-Trieffusol D]	> 200	–	–
–	108 ± 3	–	CCC1(O)C(=O)C2=C(CC1O)OC1=C(C(=O)C(O)(CC)C(O)C1)C2c1ccc(O)cc1 (stereo not shown) [Compound 2, Trieffusol B]	–	> 200	–
55.9 ± 1.6	–	–	CCc1c(O)cc2c(c1O)C(=O)C[C@H](C)O2 [Compound 4b, (−)-Trieffusol D]	> 200	–	–
51.9 to 55.9	–	–	CCc1c(O)cc2c(c1O)C(=O)CC(C)O2 (stereo not shown) [Compound 4, Trieffusol D]	> 200	–	moderate inhibitory activities
111 ± 4.6	–	–	CCCc1cc2c(c(O)c1CO)COC2=O [Compound 6, Trieffusol F]	> 200	–	–
> 200	–	149 to 150	CCC1(O)C(=O)C2=C(CC1O)OC1=C(C(=O)C(O)(CC)C(O)C1)C2c1ccc(O)cc1 (stereo not shown) [Compound 1, Trieffusol A]	> 200	–	–
51.9 to 55.9	51.9 ± 1.4	–	CCC1(O)C(=O)C=C(OCCc2ccc(O)cc2)CC1O (stereo not shown) [Compound 3, Trieffusol C]	> 200	–	moderate inhibitory activities
65.5 ± 1.3	–	–	C/C=C/C(=O)c1c(OC)cc2c(c1O)CCO2 [Compound 5, Trieffusol E]	> 200	–	–

SMILES	IC50 ([1]; Mus musculus, RAW264.7, 24 h) [µM]	IC50 [1] [µM]	melting point [°C]	IC50 at 24 h [2] [µM]	IC50 (RAW264.7 cells) [µM]	inhibitory activities against NO production (in words) [1]
N=C(N)NN [Aminoguanidine, reference compound]	–	24.8 ± 0.8	–	–	> 200	–
